Entries after “also recorded” stand apart in the source; their conditions may differ. Where a name gives a salt, the structure may show the parent alone. Read-outs that look alike come from different tables or passages of the source.
Tests used:
[1] = system: CCI-induced static allodynia; assay: chronic constriction injury (CCI)-induced static allodynia (von Frey hairs) in rats; format: in vivo, rat
Procedure: (§1) Male Sprague Dawley rats (250–300 g), obtained from Charles River, Margate, U.K.) were housed in groups of 3–6. All animals were kept under a 12 h light/dark cycle (lights on at 07 h 00 min) with food and water ad libitum. All experiments were carried out by an observer blind to drug treatments.
Animals were anaesthetised with 2% isoflurane 1:4 O2/N2O mixture maintained during surgery via a nose cone. The sciatic nerve was ligated as previously described by Bennett and Xie, 1988. Animals were placed on a homeothermic blanket for the duration of the procedure. After surgical preparation the common sciatic nerve was exposed at the middle of the thigh by blunt dissection through biceps femoris. Proximal to the sciatic trifurcation, about 7 mm of nerve was freed of adhering tissue and 4 ligatures (4-0 silk) were tied loosely around it with about 1 mm spacing. The incision was closed in layers and the wound treated with topical antibiotics.
(§2) PD 198306 and pregabalin were administered intrathecally in a volume of 10 μl using a 100 μl Hamilton syringe by exposing the spine of the rats under brief isoflurane anaesthesia. Injections were made into the intrathecal space between lumbar region 5–6 with a 10 mm long 27 gauge needle. Penetrations were judged successful if there was a tail flick response. The wound was sealed with an autoclip and rats appeared fully awake within 2–3 min following injection.
(§3) Mechanical hypersensitivity was measured using Semmes-Weinstein von Frey hairs (Stoelting, Ill., U.S.A.). Animals were placed into wire mesh bottom cages allowing access to the underside of their paws. Animals were habituated to this environment prior to the start of the experiment. Mechanical hypersensitivity was tested by touching the plantar surface of the animals right hind paw with von Frey hairs in ascending order of force (0.7, 1.2, 1.5, 2, 3.6, 5.5, 8.5, 11.8, 15.1 and 29 g) for up to 6 sec. Once a withdrawal response was established, the paw was re-tested, starting with the next descending von Frey hair until no response occurred. The highest force of 29 g lifted the paw as well as eliciting a response, thus represented the cut off point. The lowest amount of force required to elicit a response was recorded as the paw withdrawal threshold (PWT) in grams.
(§4) Static allodynia was assessed with von Frey hairs, before (baseline, BL) and 0.5 h, 1 h and 2 h after intrathecal or intraplantar administration of PD 198306 (1–30 μg, i.t.), vehicle (cremophor:ethanol:water, 1:1:8) or pregabalin (10 μg, i.t.). For oral administration experiments, static allodynia was assessed with von Frey hairs, before (baseline, BL) and 1 h after oral administration of PD 198306 (3–30 mg/kg, p.o.), vehicle (cremophor:ethanol:water, 1:1:8) or pregabalin (30 mg/kg, p.o.). Animals were administered again the same compounds on the following day, both in the morning and the afternoon. Static allodynia was assessed before and 1 h after the morning administration. In the afternoon static allodynia was assessed before, 1 h, 2 h and 3 h after administration for streptozocin treated animals. CCI animals were assessed before, 1 h and 2 h after administration
PD 198306 and pregabalin were synthesised at Parke-Davis (Ann Arbor, Mich., USA). PD 198306 was suspended in cremophor:ethanol:water (1:1:8) vehicle. Pregabalin was dissolved in water. Both compounds were administered orally, intrathecally or intraplantar in volumes of 1 ml/kg, 10 μl and 100 μl respectively. Streptozocin (Aldrich, UK) was dissolved in 0.9% w/v NaCl and administered intraperitoneally in a volume of 1 ml/kg.
Data were analysed using a Kruskall-Wallis ANOVA for non-parametric results, followed when significant by Mann-Whitney's t test vs vehicle group.
The animals and methods for developing chronic constriction injury in the rat, injecting test compounds, and evaluation of static allodynia were according to Example 2 above. […]

[2] = system: streptozocin-induced static allodynia; assay: streptozocin-induced static allodynia (von Frey hairs) in diabetic rats; format: in vivo, rat
Procedure: Male Sprague Dawley rats (250–300 g), obtained from Bantin and Kingman, (Hull, U.K.) were housed in groups of 3. All animals were kept under a 12 h light/dark cycle (lights on at 07 h 00 min) with food and water ad libitum. All experiments were carried out by an observer blind to drug treatments.
Diabetes was induced in rats by a single i.p. injection of streptozocin (50 mg/kg) as described previously (Courteix et al., 1993).
as §3
PD 198306 [N-Cyclopropylmethoxy-3,4,5-trifluoro-2-(4-iodo-2-methyl-phenylamino)-benzamide] and Cl-1008 (pregabalin) were synthesized at Parke-Davis (Ann Arbor, Mich., USA). PD 198306 was suspended in cremophor:ethanol:water (1:1:8) vehicle. Pregabalin was dissolved in water. Both compounds were administered orally. Streptozocin (Aldrich, UK) was dissolved in 0.9% w/v NaCl and administered intraperitoneally. Drug administrations were made in a volume of 1 ml/kg.
The static allodynia data were analysed using a Kruskall-Wallis ANOVA for non-parametric results, followed when significant by Mann-Whitney's t test.
Static allodynia was assessed with von Frey hairs, before (baseline, BL) and 1 h after oral administration of PD 198306 (30 mg/kg, p.o.), vehicle (cremophor:ethanol:water, 1:1:8) or pregabalin (30 mg/kg, p.o.) (test). Animals were administered again the same compounds on the following day, both in the morning and the afternoon. Static allodynia was assessed only before and 1 h after the afternoon administration, in order to minimise the habituation of the animals to the testing conditions. Animals treated with pregabalin received water in the morning administration, in order to avoid the potential development of tolerance to the compound with repeated administration.
as §1, §2
as §4, with “Static allodynia was assessed before and 1 h after the morning administration. In the afternoon static allodynia was assessed before, 1 h, 2 h and 3 h after administration for streptozocin treated animals. CCI animals were assessed before, 1 h and 2 h after administration” left out

colon 26 cells = colon 26 cells IC50; format: cell-based; conditions: Mus musculus
MEK = assay: binding affinity of MEK inhibitors; conditions: affinity of the MEK inhibitors of Biological Example 3
[3] = system: CCI-induced static allodynia; assay: chronic constriction injury (CCI)-induced static allodynia (von Frey hairs) in rats; format: in vivo, rat; conditions: Biological Example 3; intrathecal administration 30 μg
[4] = intraplantar administration 3 mg/100 μl
[5] = intrathecal administration 1–30 μg
[6] = Biological Example 1, single administration 30 mg/kg p.o., 1 h after administration
[7] = Biological Example 2, single administration p.o. (pregabalin 30 mg/kg, PD 198306 3–30 mg/kg), 1 h after administration
[8] = Biological Example 3, intrathecal administration 30 μg

Cc1cc(I)ccc1Nc1c(C(=O)NOCC2CC2)cc(F)c(F)c1F [PD 198306, N-Cyclopropylmethoxy-3,4,5-trifluoro-2-(4-iodo-2-methyl-phenylamino)-benzamide]
effect on static allodynia, CCI model ([1]; Biological Example 2, intrathecal administration 30 μg): significantly blocked; also recorded: totally blocked | effect on static allodynia, CCI model [1, 4]: had no effect | minimum effective dose (MED), static allodynia, CCI model ([1]; intrathecal administration): 10 µg | effect on static allodynia, CCI model [1, 5]: dose-dependently blocked | effect on CCI-induced static allodynia ([1]; single or multiple administration 3–30 mg/kg p.o.): neither a single or multiple administration of PD 198306 (3–30 mg/kg, p.o) had any effect; also recorded: had no effect | effect on streptozocin-induced static allodynia ([2]; Biological Example 1, 30 mg/kg p.o., 1 h after the third administration (twice more on the following day)): significantly blocked | persistence of the effect on streptozocin-induced static allodynia ([2]; Biological Example 1, 30 mg/kg p.o., day after the third administration): disappeared by the following day | effect on streptozocin-induced static allodynia [2, 6]: had no effect | effect on streptozocin-induced static allodynia ([2]; Biological Example 2, PD 198306 30 mg/kg p.o., after the third administration (3 doses over two days), 30 mg/kg): significantly blocked; also recorded: transient effect | effect on streptozocin-induced static allodynia [2, 7]: had no effect | effect on static allodynia, streptozocin model [2, 4]: had no effect | minimum effective dose (MED), static allodynia, streptozocin model ([2]; intrathecal administration): 3 µg | effect on static allodynia, streptozocin model ([2]; intrathecal administration 30 μg): significantly blocked; also recorded: totally blocked | effect on static allodynia, streptozocin model [2, 5]: dose-dependently blocked

Cc1cc(I)ccc1Nc1c(C(=O)O)cc2nc[nH]c2c1F [PD 205293, 7-fluoro-6-(4-iodo-2-methyl-phenylamino)-1H-benzoimidazole-5-carboxylic acid]
melting point: 247 to 248 °C (dec.) | IC50 (colon 26 cells; read-out: colon 26 cells, IC50): > 10000 nM

CC(C)C[C@H](CN)CC(=O)O [pregabalin]
effect on CCI-induced static allodynia ([1]; single administration 30 mg/kg p.o., 1 h after administration): significantly blocked | effect on streptozocin-induced static allodynia [2, 6]: significantly blocked | effect on streptozocin-induced static allodynia [2, 7]: significantly blocked

Cc1cc(I)ccc1Nc1c(C(=O)NOCC2CC2)cc2nc[nH]c2c1F [PD 254552, 7-fluoro-6-(4-iodo-2-methyl-phenylamino)-1H-benzoimidazole-5-carboxylic acid cyclopropylmethoxy-amide]
affinity (MEK): 5 nM | effect on static allodynia, CCI model [1, 8]: blocked the maintenance of static allodynia | time for which the antiallodynic effect was evident post-injection, CCI model [1, 8]: 30 min | IC50 (colon 26 cells; read-out: colon 26 cells, 1 hour pretreatment, IC50): 20 nM

Cc1cc(I)ccc1Nc1c(C(=O)NOCC2CC2)cc2nc[nH]c2c1F (as salt: salt) [PD 254552, 7-fluoro-6-(4-iodo-2-methyl-phenylamino)-1H-benzoimidazole-5-carboxylic acid cyclopropylmethoxy-amide]
melting point: 168 to 172 °C

O=C(NOCC1CC1)c1ccc(F)c(F)c1Nc1ccc(I)cc1Cl [PD 184352]
affinity (MEK): 2 nM | effect on static allodynia, CCI model [1, 8]: blocked the maintenance of static allodynia | time for which the antiallodynic effect was evident post-injection, CCI model [1, 8]: 30 min | magnitude of the antiallodynic effect compared with 100 μg of pregabalin, CCI model [3]: similar
